According to patent US6776971B1, “Visible light pH change for activating polymers and other pH dependent reactants” (The United States of America as represented by the …, priority 1998, dated 2004):
One block for each compound: values may come before it.

Tests used:
[1] = Excitation wavelength and light absorbance; format: physicochemical; details: for Log (eps) / epsilon: 413.1 nm
From the text: In Table 1, characteristics of the carbon acids are described. […] In this table, “obs” means “observed” and “c” means “calculated”. Of these, the PAC, anthracene, fits well with certain well established polymers. Referring to FIG. 4, the protonated form of this molecule is confirmed. […] The peak at 424 nm is the only peak within the visible region of the spectrum which decreases with time, and is the signature of anthracene's protonated form. It is this peak that is used to activate the anthracene polymeric actuator with visible light.

[2] = Excited-state / phosphorescence lifetimes of candidate jump molecules; format: physicochemical; details: for τp (excited-state lifetime, p for phosphorescence): carbon acids, obs = observed; for Lifetimes (mS): triplet, prolonged excited state
From the text: During the course of scientific research, the inventor constructed kinetic equations for the 3-level system of FIG. 1. Referring again to FIG. 1, an ideal “jump molecule” will be excited from ground state energy level (S0) to first excited singlet state energy level (S1), and return to the ground state via triplet state energy level (T1). The radiationless transition and radiative decay via phosphorescence will function as a “sink” for the molecules and because of their combined long lifetime, a prolonged molecule excited state will exist. The pH change produced by this excitation will last for the life of this excited state.
For example, the phenones are considered undesirable because the lifetimes of the protonated and non-protonated forms are very different, providing a rapid excited state deactivation channel. An example of this is benzophenone, having an unprotonated lifetime of 100 milliseconds and a protonated lifetime of 62 nanoseconds.
(§1) In Table 1, characteristics of the carbon acids are described. […] In this table, “obs” means “observed” and “c” means “calculated”.

[3] = Acidity constants (pK) in ground, first excited singlet and triplet states; format: physicochemical; details: for pK (S0): ground state
From the text: The term pK is a shorthand indicating the strength of an acid (pKa) and is defined as the −log10 K in which K is the characteristic equilibrium constant K, represented by:
where [H^+] is the hydrogen ion concentration and [B] is the concentration of the conjugate base. When the amount of one of these constituents is varied, the others will adjust to keep K constant.
as §1
By utilizing visible light, the protonated form BH^+ of anthracene is disassociated into its base (B) and hydrogen ion (H^+) constituents to prompt a pH change from […]. […] The calculation in Table 2 is based on a pK(S0) value for anthracene found in Mackor. E. L., Hofstra, A., and Van Der Waals, J. H., 1958, in an article entitled “The Basicity of Aromatic Hydrocarbons”, Trans. Faraday Soc., vol. 54, 66.

[4] = pK(S0), value from Mackor et al 1958; cited from earlier work
[5] = cited from earlier work

Compound: N#CC1c2ccccc2-c2ccccc21 [9-cyanflourene]
τp (excited-state lifetime, p for phosphorescence) [2]: obs
pK (S0) [3]: 11.4
λ00 (excitation wavelength necessary to initiate a pH change) [1]: 300 nm

Compound: O=C(c1ccccc1)c1ccccc1 [benzophenone]
protonated lifetime [2]: 62 nanoseconds
unprotonated lifetime [2]: 100 milliseconds

Compound: c1ccc2cc3ccccc3cc2c1 [Anthracene, anthracene]
Lifetimes nS ([2]; singlet excited state): 10.0 nS
Lifetimes (mS) [2]: (10.0) mS
Lifetimes (mS) ([2]; listed as anthracene): 10 mS
pK's Singlet [3]: 13.6
pK's Triplet ([3]; pK(T1)): 10.3
pK's Ground [4]: 3.8
Log (eps) [1]: 0.04
epsilon [1]: 1

Compound: c1ccc(C2c3ccccc3-c3ccccc32)cc1 [9-phenylflourene]
τp (excited-state lifetime, p for phosphorescence) [2]: obs
pK (S0) [3]: 18.6
λ00 (excitation wavelength necessary to initiate a pH change) [1]: 305 nm

Compound: O=S(=O)(O)c1ccc2cc(O)ccc2c1 [2-naphthol-6-sulfonate]
excited-state pKa value ([5]; S1 state, UV laser, from measured rate constants): 1.9
ground-state pKa value [5]: 9.1
change in pKa ([5]; ground vs excited state): 7 unit

The remaining lines, values ahead:

Log (eps) [1]: 4.38
epsilon [1]: 23988
absorbance peak within the visible region ([1]; zero-time spectrum, FIG. 4): 424 nm
Compound: protonated anthracene [BH+]

τp (excited-state lifetime, p for phosphorescence) [2]: 0.35 ms
pK (S0) [3]: 23.04
λ00 (excitation wavelength necessary to initiate a pH change) [1]: 300 nm
Compound: c1ccc2c(c1)Cc1ccccc1-2 [fluorene]
